Reference: patent US8778959B2, “AZA-bridged ring-fused indoles and indolines” (AbbVie Inc., priority 2009, dated 2014)

Test system: SK-N-SH human neuroblastoma cells
Assay: Serum Deprivation/JC-1 Mitochondrial Membrane Potential (MMP) Assay
Assay type: cell-based
Conditions: for Emax: percent maximal intensity in JC-1 ratio normalized to peak value for 10 μM dimebolin, read-out: JC-1 max %; for EC50: serum deprivation ~18 hours, JC-1 ratio normalized to peak value for 10 μM dimebolin, single curve fit to mean of n=2-3
Description: SK-N-SH human neuroblastoma cells obtained from American Type Culture Collection (Rockville, Md.) were maintained in the log phase of growth in Minimal Essential Media (MEM), 10% heat inactivated fetal calf serum and 100 units/mL antibiotic-antimycotic (AA). Cells were cultured and maintained in a humidified incubator at 37° C. under 5% CO2 and 95% air. Cells were trypsinized (0.25%) and subcultured every 3 days and used from 15-18 passages. All cell culture supplies were obtained from Invitrogen (Carlsbad, Calif.).
SK-N-SH cells were plated 2-3 days in advance at a concentration of 50,000 cells/well onto collagen coated black-walled 96 well plates (Becton-Dickinson, Bedford, Mass.) in a total volume of 200 μL. On day of experimental treatment, the media containing serum was aspirated from each well and rinsed once with MEM/1% AA without serum. The cells then were incubated overnight in 100 μL of MEM/1% AA (no serum) with and without dimebolin or novel chemical entities overnight for ˜18 hours. The following day, JC-1 dye (5,5′,6,6′-tetrachloro-1,1′,3,3′-tetraethylbenzimidazolcarbocyanide) was diluted 1:10 into MEM media according to the JC-1 Mitochondrial Membrane Potential Assay Kit: (Cayman Chemical Company, Ann Arbor, Mich.) and then 10 μL of the JC-1 dye solution was added to each well. The plates were centrifuged for 5 minutes at 400×g at room temperature followed by 35 minute incubation at 37° C. The plates were washed twice with 200 μL of provided Assay Buffer followed an addition of 100 μL of Assay Buffer to each well. The plates were read with an excitation and emission of 560 nm and 595 nM for red fluorescence and with an excitation and emission of […] and 535 nM for green fluorescence to determine the final JC-1 value taking the red to green fluorescence ratio. This assay is based on change in mitochondrial membrane potential (MMP) using this lipophilic cationic dye, JC-1, by monitoring the changes in the ratio of red to green fluorescence as the MMP depolarizes. This change in MMP reflects the health of the cell with healthy, viable cells have a high JC-1 ratio and high MMP whereas apoptotic, unhealthy cells have a low JC-1 ratio or low MMP.
For the ability of compounds to reverse the stress due to serum deprivation and increase the JC-1 ratio, the percent maximal intensity in JC-1 ratio was normalized to that induced by the peak value for 10 μM dimebolin and plotted against the compound concentration to calculate EC50 values and to control for plate-to-plate variability. Concentration-response data were analyzed using GraphPad Prism (San Diego, Calif.); the EC50 values were derived from a single curve fit to the mean data of n=2-3, in duplicates.
All compounds were dissolved in dimethyl sulfoxide at 10 mM stock solutions and tested at a concentration that the dimethyl sulfoxide levels never exceeded 1%.

Row | SMILES | Emax (Homo sapiens, SK-N-SH, 18 h) | EC50 (Homo sapiens, SK-N-SH, 18 h) | EC50
1 | COC(=O)N1C2CCC1c1c([nH]c3c(/C=C/c4ccc(C)nc4)cccc13)C2 (centres unmarked) [Example 19, methyl 4-[(E)-2-(6-methylpyridin-3-yl)vinyl]-5,6,7,8,9,10-hexahydro-7,10-epiminocyclohepta[b]indole-11-carboxylate] | 178% | 5.37 µM | 
2 | COC(=O)N1C2CCC1c1c([nH]c3c(-c4ccc5ncccc5c4)cccc13)C2 (centres unmarked) [Example 22, methyl 4-quinolin-6-yl-5,6,7,8,9,10-hexahydro-7,10-epiminocyclohepta[b]indole-11-carboxylate] | 204% | 6.44 µM | 
3 | Cc1ccc(C#Cc2cccc3c4c([nH]c23)CC2CCC4N2C)cn1 (centres unmarked) [Example 3, 11-methyl-4-[(6-methylpyridin-3-yl)ethynyl]-5,6,7,8,9,10-hexahydro-7,10-epiminocyclohepta[b]indole] | 244% | 6.18 µM | 
4 | Cc1ccc(/C=C/c2cccc3c4c([nH]c23)C[C@@H]2CC[C@H]4N2C)cn1 (stereo in doubt) [Example 14, (+)-(7S*,10R*)-11-methyl-4-[(E)-2-(6-methylpyridin-3-yl)vinyl]-5,6,7,8,9,10-hexahydro-7,10-epiminocyclohepta[b]indole] | 162% | 4.34 µM | 
5 | CN1[C@H]2CC[C@@H]1c1c([nH]c3c(OCc4ccccc4)cccc13)C2 (stereo in doubt) [Example 6, (7S*,10R*)-4-(benzyloxy)-11-methyl-5,6,7,8,9,10-hexahydro-7,10-epiminocyclohepta[b]indole] | 55% | 4.59 µM | 
6 | CN1C2CCC1c1c([nH]c3c(-c4ccc(Cl)cc4)cccc13)C2 (centres unmarked) [Example 11, 4-(4-chlorophenyl)-11-methyl-5,6,7,8,9,10-hexahydro-7,10-epiminocyclohepta[b]indole] | 74% | 8.03 µM | 
7 | CN1[C@@H]2CCC[C@H]1c1c([nH]c3c(OCc4ccccc4)cccc13)C2 (stereo in doubt) [Example 7, (−)-(7R*,11S*)-4-(benzyloxy)-12-methyl-6,7,8,9,10,11-hexahydro-5H-7,11-epiminocycloocta[b]indole] | 120% | 5.41 µM | 
8 | c1cncc(-c2cccc3c4c([nH]c23)CC2CCC4N2)c1 (centres unmarked) [Example 35, 4-(pyridin-3-yl)-5,6,7,8,9,10-hexahydro-7,10-epiminocyclohepta[b]indole] | 87.2% | 11 µM | 
9 | CN1[C@H]2CCC[C@@H]1c1c([nH]c3c(OCc4ccccc4)cccc13)C2 (stereo in doubt) [Example 8, (+)-(7S*,11R*)-4-(benzyloxy)-12-methyl-6,7,8,9,10,11-hexahydro-5H-7,11-epiminocycloocta[b]indole] | 107% | 8.52 µM | 
10 | CC(=O)N1C2CCC1c1c([nH]c3c(-c4ccc(Cl)nc4)cccc13)C2 (centres unmarked) [Example 29, 1-[4-(6-chloropyridin-3-yl)-5,6,7,8,9,10-hexahydro-7,10-epiminocyclohepta[b]indol-11-yl]ethanone] | 114% | 5.31 µM | 
11 | CN1C2CCC1c1c([nH]c3c(-c4cnc5ccccc5c4)cccc13)C2 (centres unmarked) [Example 34, 11-methyl-4-(quinolin-3-yl)-5,6,7,8,9,10-hexahydro-7,10-epiminocyclohept[b]indole] | 189% | 1.34 µM | 
12 | Cc1ccc(C#Cc2cccc3c4c([nH]c23)CC2CNC4C2)cn1 (centres unmarked) [Example 38, 7-[(6-methylpyridin-3-yl)ethynyl]-1,2,3,4,5,6-hexahydro-1,4-methanoazepino[4,3-b]indole] | 120% | 5.88 µM | 
13 | Cc1ccc(/C=C/c2cccc3c4c(n(C)c23)CC2CCC4N2)cn1 (centres unmarked) [Example 24, 5-methyl-4-[(E)-2-(6-methylpyridin-3-yl)vinyl]-5,6,7,8,9,10-hexahydro-7,10-epiminocyclohepta[b]indole] | 217% | 3.85 µM | 
14 | Clc1ccc(-c2ccc(-c3cccc4c5c([nH]c34)CC3CCC5N3)cn2)cn1 (centres unmarked) [Example 28, 4-(6′-chloro-2,3′-bipyridin-5-yl)-5,6,7,8,9,10-hexahydro-7,10-epiminocyclohepta[b]indole] | 118% | 5.5 µM | 
15 | c1ccc(COc2cccc3c4c([nH]c23)C[C@@H]2CCC[C@H]4N2)cc1 (stereo in doubt) [Example 10, (7S*,11R*)-4-(benzyloxy)-6,7,8,9,10,11-hexahydro-5H-7,11-epiminocycloocta[b]indole] | 128% | 4.81 µM | 
16 | Cc1ccc(/C=C/c2ccc3[nH]c4c(c3c2)C2CCC(C4)N2C)cn1 (centres unmarked) [Example 4, 11-methyl-2-[(E)-2-(6-methylpyridin-3-yl)vinyl]-5,6,7,8,9,10-hexahydro-7,10-epiminocyclohepta[b]indole] | 239% | 3.62 µM | 
17 | COC(=O)N1C2CCC1c1c([nH]c3c(-c4ccc5ccncc5c4)cccc13)C2 (centres unmarked) [Example 20, methyl 4-isoquinolin-7-yl-5,6,7,8,9,10-hexahydro-7,10-epiminocyclohepta[b]indole-11-carboxylate] | 292% | 9.94 µM | 
18 | CN1[C@@H]2CC[C@H]1c1c([nH]c3c(OCc4ccccc4)cccc13)C2 (stereo in doubt) [Example 5, (7R*,10S*)-4-(benzyloxy)-11-methyl-5,6,7,8,9,10-hexahydro-7,10-epiminocyclohepta[b]indole] | 24% | > 30 µM | 
19 | Cc1ccc(/C=C/c2cc(F)cc3c4c([nH]c23)CC2CCC4N2C)cn1 (centres unmarked) [Example 12, 2-fluoro-11-methyl-4-[(E)-2-(6-methylpyridin-3-yl)vinyl]-5,6,7,8,9,10-hexahydro-7,10-epiminocyclohepta[b]indole] | 200% | 7.83 µM | 
20 | Cc1ccc(/C=C/c2cccc3c4c([nH]c23)CC2CNC4C2)cn1 (centres unmarked) [Example 30, 7-[(E)-2-(6-methylpyridin-3-yl)vinyl]-1,2,3,4,5,6-hexahydro-1,4-methanoazepino[4,3-b]indole] | 118% | 5.59 µM | 
21 | c1ccc2ncc(-c3cccc4c5c([nH]c34)CC3CCC5N3)cc2c1 (centres unmarked) [Example 32, 4-(quinolin-3-yl)-5,6,7,8,9,10-hexahydro-7,10-epiminocyclohepta[b]indole] | 174% | 2.58 µM | 
22 | Cc1ccc(/C=C/c2cccc3c4c([nH]c23)C[C@H]2CC[C@@H]4N2)cn1 (single isomer, unassigned) [Example 25] | 173% | 6.25 µM | 5.99 µM
23 | Cc1ccc(CCc2cccc3c4c([nH]c23)CC2CCC4N2C)cn1 (centres unmarked) [Example 2, 11-methyl-4-[2-(6-methylpyridin-3-yl)ethyl]-5,6,7,8,9,10-hexahydro-7,10-epiminocyclohepta[b]indole] | 173% | 5.25 µM | 
24 | Cc1ccc(-c2cccc3c4c([nH]c23)CC2CNC4C2)cn1 (centres unmarked) [Example 37, 7-(6-methylpyridin-3-yl)-1,2,3,4,5,6-hexahydro-1,4-methanoazepino[4,3-b]indole] | 131% | 7.33 µM | 
25 | COC(=O)N1C2CCC1c1c([nH]c3c(-c4cnc5ccccc5c4)cccc13)C2 (centres unmarked) [Example 36, methyl 4-(quinolin-3-yl)-5,6,7,8,9,10-hexahydro-7,10-epiminocyclohepta[b]indole-11-carboxylate] | 140% | 1.13 µM | 
26 | c1cc(-c2ccncc2)c2[nH]c3c(c2c1)C1CCC(C3)N1 (centres unmarked) [Example 31, 4-(pyridin-4-yl)-5,6,7,8,9,10-hexahydro-7,10-epiminocyclohepta[b]indole] | 22.3% | > 31.6 µM | 
